According to patent US20100197740A1, “Method of Screening Compounds Having Anti-Amyloid Properties” (LES LABORATOIRES SERVIER, priority 2006, published 2010):

Legend:
Aβ42-α7 nAChR complexes [1] = biological target: T1, Aβ42-α7 nAChR complexes (Homo sapiens, UniProt P36544); assay: Inhibition of formation of Aβ42-α7 nAChR complexes in post-mortem frontal cortex synaptosomes (immunoprecipitation, Western blot); type: binding; conditions: S 24795 30 μM added before Aβ peptides (Aβ42 100 nM); non-diseased control human cortex synaptosomes
T1 construct: dissociation of the complexes already present in the diseased human tissues; tissue Harvard Brain Tissue Resource Center and Analytical Biological Services; host or cells: post-mortem frontal cortex synaptosomes of Alzheimer's disease patients
Method: FIG. 1: Western blot illustrating the inhibition, by S 24795, of Aβ42-α7 nAChR complexes obtained post-mortem from frontal cortex synaptosomes of Alzheimer's disease patients or control subjects. The Aβ42-α7 nAChR complexes are incubated in the medium (Krebs-Ringer) on its own or in the presence of S 24795 (30 μM) for 10 minutes, followed by incubation in the presence of Aβ42 peptide for 30 minutes.
FIG. 2: Quantification of the inhibition of the formation of Aβ42-α7 nAChR complexes in human frontal cortex synaptosomes obtained post-mortem from Alzheimer's disease patients and control subjects and incubated with S 24795 (30 μM)—or not—and then with Aβ42 peptides (100 nM). *: p<0.01 for controls and Alzheimer's disease patients, Newman-Keuls test for multiple comparisons.
(§1) 100 mg of post-mortem frontal cortex ground on ice are homogenised in 10 volumes of 10 mM HEPES pH 7.4 maintained on ice and oxygenated in the presence of […] sucrose and 0.1 mM EDTA and then mixed in a Teflon/glass tissue grinder at 4° C. in a homogenisation solution containing 25 mM HEPES pH 7.5, 1 mM EDTA, 50 μg/ml of leupeptin, 10 μg/ml of aprotinin, 2 μg/ml of soy trypsin inhibitor, 0.04 mM PMSF, a mixture of phosphatase inhibitor proteins, and 0.2% […].
The homogenate is centrifuged, firstly, at 1000 g and 4° C. for 10 minutes. […]

Aβ42-α7 nAChR complexes [2] = biological target: T1, Aβ42-α7 nAChR complexes; assay: Dissociation of Aβ42-α7 nAChR complexes already present in frontal cortex synaptosomes of Alzheimer's disease patients (immunoprecipitation, Western blot); type: binding
Method: FIG. 3: Western blot illustrating the dissociation, caused by S 24795, of Aβ42-α7 nAChR complexes obtained post-mortem from frontal cortex synaptosomes of Alzheimer's disease patients or control subjects. The Aβ42-α7 nAChR complexes are incubated in the medium (Krebs-Ringer) on its own or in the presence of S 24795 (1, 10, 30 or 100 μM) for 10 minutes and then in the presence or absence of Aβ42 (100 nM).
FIG. 4: Quantification of the dissociation of the interaction of α7 nAChR receptors associated with Aβ42 in human frontal cortex synaptosomes obtained post-mortem from Alzheimer's disease patients and control subjects and incubated with S 24795 (from 1 to 100 μM) and then in the presence or absence of Aβ42 (100 nM). *: p<0.01 for controls and Alzheimer's disease patients, Newman-Keuls test for multiple comparisons.
as §1
The homogenate is centrifuged, firstly, at 1000 g and 4° C. for 10 minutes. The supernatant obtained in that first centrifugation is centrifuged for a second time at 15000 g for 30 minutes to obtain a sediment of synaptosomes.
The sediment of synaptosomes is washed twice by suspension in 10 ml of Krebs-Ringer solution, maintained on ice, comprising 25 mM HEPES pH 7.4, 118 mM NaCl, 4.8 mM KCl, 25 mM NaHCO3, 1.3 mM CaCl2, 1.2 mM MgSO4, 1.2 mM KH2PO4, 10 mM glucose, 100 μM ascorbic acid, 50 μg/ml of leupeptin, 10 μg/ml of aprotinin, 2 μg/ml of soy trypsin inhibitor, 0.04 mM PMSF and a mixture of phosphatase inhibitor proteins, aerated for 10 minutes using 95% O2/5% CO2 and then centrifuged again at 15000 g for 10 minutes at 4° C. The washed synaptosomes are then suspended in 1 ml of oxygenated Krebs-Ringer solution and the protein concentration of said synaptosome suspension is determined by the Bradford method.
The human cortex synaptosomes are incubated in an oxygenated Krebs-Ringer solution in the presence of the compound S 24795 at 37° C. for 30 minutes in a total incubation volume of 500 μl. The compound S 24795 is present in the reaction mixture at a concentration of 1 μM, 10 μM, 30 μM or 100 μM. Depending on the experiments being carried out, the synaptosomes are also incubated in the presence of 100 nM Aβ42 or in the presence of the vehicle. […]

α7 nAChR and NMDAR = assay: Functional recovery: 45Ca2+ entry into frontal cortex synaptosomes via α7 and NMDA receptors; type: biochemical, human
Method: FIG. 5: Quantification of the entry of ^45Ca^2+ into human frontal cortex synaptosomes obtained post-mortem from Alzheimer's disease patients and from control subjects and treated with S 24795. The control brain slices are incubated in the presence of Aβ42 (1 μM)—or not—prior to the treatment with S 24795 (10 μM). Calcium entry is brought about either by α7 agonist (PNU282987) or by NMDA added to glycine.
The functional recovery experiments are carried out using brains according to I.2 obtained from patients according to I.1.
The functional recovery brought about by the treatment with S 24795 (10 μM) is evaluated with reference to the calcium influx via α7 and NMDA receptors. It was tested after 1 hour of treatment with S 24795 on control brains exposed to Aβ42 (30 minutes) and on brains of Alzheimer's disease patients. The treatments using Aβ42 (1 μM) and S 24795 (10 μM) are carried out on slices of cortex obtained from those brains. Synaptosomes are then prepared as described in I.4. In order to evaluate the Ca^2+ influxes via the α7 and NMDA receptors, the synaptosomes are incubated in the presence of ^45Ca^2+ (5 μM) for 5 minutes at 37° C. in Krebs-Ringer medium. The Ca^2+ fluxes are brought about for α7 selective α7nAChR receptor agonist, PNU282987 (0.1, 1 and 10 μM), and for the NMDAR receptors by the addition of NMDA (0.1, 1, 10 μM) and glycine (1 μM). The reaction is stopped by the addition of Krebs-Ringer (4° C.) containing EGTA but not containing calcium. After two washings, the synaptosomes are lysed by sonication in ethanol (95%) and the radioactivity is counted by liquid scintillation spectrometry. The specificity of the calcium influxes is checked by means of the addition of selective inhibitors of the α7 receptor (α-bungarotoxin) and of the NMDA receptor (AP-5).

T1 sequence (P36544 23-502, one chain of several): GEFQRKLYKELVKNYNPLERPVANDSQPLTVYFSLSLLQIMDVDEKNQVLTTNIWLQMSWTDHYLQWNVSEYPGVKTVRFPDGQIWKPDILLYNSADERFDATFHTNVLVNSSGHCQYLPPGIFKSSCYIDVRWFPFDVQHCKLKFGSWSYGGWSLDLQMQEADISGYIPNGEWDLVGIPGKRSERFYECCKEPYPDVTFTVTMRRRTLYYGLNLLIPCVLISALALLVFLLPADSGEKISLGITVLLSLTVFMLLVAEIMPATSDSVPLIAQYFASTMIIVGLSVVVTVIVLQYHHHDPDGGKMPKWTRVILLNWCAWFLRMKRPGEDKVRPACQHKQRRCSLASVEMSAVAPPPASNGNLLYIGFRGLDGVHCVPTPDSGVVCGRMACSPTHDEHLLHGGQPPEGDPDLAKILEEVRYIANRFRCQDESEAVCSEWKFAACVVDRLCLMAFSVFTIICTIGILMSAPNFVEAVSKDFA

“1-(4-bromophenyl)-2-(1-methyl-2-pyridiniumyl)-1-ethanone chloride or iodide [S 24795]” was tested, and the “reduction of the amount of Aβ42-α7 nAChR complexes formed” value (Aβ42-α7 nAChR complexes [1]) was 92%, the “reduction in the Aβ42-α7 nAChR complexes previously present in the diseased brain extracts” value (Aβ42-α7 nAChR complexes [2]; S 24795 1 μM, absence of exogenous Aβ peptides, Alzheimer's disease synaptosomes) was “about 22%” and the “reduction in the Aβ42-α7 nAChR complexes previously present in the diseased brain extracts” value (Aβ42-α7 nAChR complexes [2]; S 24795 10, 30 and 100 μM, absence of exogenous Aβ peptides, dose-dependent) was “substantial”. The “reduction of non-dissociated Aβ42-α7 nAChR complexes” value (Aβ42-α7 nAChR complexes [2]; S 24795 at the highest concentration (100 μM), absence of exogenous Aβ peptides, Alzheimer's disease synaptosomes, p<0.01) was roughly 63%, the “reduction in the amount of Aβ42-α7 nAChR complexes present in the diseased brains” value (Aβ42-α7 nAChR complexes [2]; synaptosomes from cortices of Alzheimer's disease patients, S 24795 30 μM, Aβ peptides added (FIG. 1)) was “substantial reduction” and the “Ca2+ entry level as % of the control values without Aβ” value (α7 nAChR and NMDAR; after S 24795 10 μM, brains of Alzheimer's disease patients and of controls pretreated with Aβ (comparable levels)) was “about 65%”. The “increase in Ca2+ entry compared to the brains of untreated Alzheimer's disease patients” value (α7 nAChR and NMDAR; brains of Alzheimer's disease patients, S 24795 10 μM for 1 hour) was roughly 75% and the “re-establishment of Ca2+ entry” value (α7 nAChR and NMDAR; control brain slices exposed to Aβ42 (1 μM), then S 24795 10 μM for 1 hour) was “substantial re-establishment”.
